This is an account of results in patent US20230085307A1, “PYRIDAZINONE COMPOUND AND HERBICIDE” (NISSAN CHEMICAL CORPORATION, priority 2019, published 2023).

One assay has as its system late watergrass. Kind of assay: Test Example 1: herbicidal activity, application before weed generation under submerged conditions (Table 16, symbol A). Format: in vivo, late watergrass (Echinochloa oryzicola). Particulars: 320 g/ha applied herbicide. In a few lines: (§1)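 Submerged Wagner pots (alluvial soil, 4 cm water) sown with weed seeds and planted with 2.5-leaf rice seedlings; emulsifiable concentrate diluted in water applied to water surface on sowing day. Held in greenhouse at 25-30 °C; injury scored 0-5 by herbicidal rate after three weeks.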

Assay [1] concerns Japanese bulrush. In words: Test Example 1: herbicidal activity, application before weed generation under submerged conditions (Table 16, symbol B). Format: in vivo, Japanese bulrush (Schoenoplectus juncoides). The conditions noted are these: 320 g/ha applied herbicide. In a few lines:
as §1

For assay [2], the system named is Japanese bulrush. In words: Test Example 2: herbicidal activity, application during weed generation under submerged conditions (Table 17, symbol B). The assay is classed as in vivo, Japanese bulrush (Schoenoplectus juncoides). The conditions noted are these: AAH 320 g/ha; application during weed generation, submerged conditions. The method, boiled down:
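Alluvial soil in Wagner pots was flooded to 4 cm depth and sown with the three weeds together; pots were kept in a greenhouse at 25° C. to 30° C. At the one to two leaf stage, an emulsion formulation diluted in water to a set rate went onto the water surface; scored three weeks later.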

The test system of assay [3] is barnyard grass. Kind of assay: Test Example 3: herbicidal effect by foliage application, Wagner pot (Table 18, symbol H). The conditions noted are these: 320 g/ha. Format: in vivo, barnyard grass (Echinochloa crus-galli). In a few lines:
(§2)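 Plants were sown in alluvial soil held under 0.1–0.5 cm standing water and grown 14 days in a greenhouse at 25–30 °C. An emulsifiable formulation, water-diluted to the set dose, was then sprayed onto the foliage, and effects were scored three weeks later using previously defined criteria.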

The next assay deals with Chinese sprangletop. Kind of assay: Test Example 3: herbicidal effect by foliage application, Wagner pot (Table 18, symbol D). The conditions noted are these: 320 g/ha. The assay is classed as in vivo, chinese sprangletop (Leptochloa chinensis). In a few lines:
as §2

Another assay relates to southern crabgrass. Kind of assay: Test Example 4: herbicidal effect by soil treatment (Table 19, symbol F). The conditions noted are these: 320 g/ha. Format: in vivo, southern crabgrass (Digitaria ciliaris). In a few lines: (§3)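 Step 1: sow seeds in sterilized diluvial soil, cover ~1.5 cm. Step 2: spray diluted emulsion onto soil surface at predetermined rate. Step 3: greenhouse, 25–30° C, three weeks. Step 4: grade effect on each plant by earlier criteria.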

The test system of assay [4] is barnyard grass. Kind of assay: Test Example 4: herbicidal effect by soil treatment (Table 19, symbol H). The assay is classed as in vivo, barnyard grass (Echinochloa crus-galli). The conditions noted are these: 320 g/ha. In a few lines: as §3
Assay [5] relates to windgrass. Kind of assay: Test Example 4: herbicidal effect by soil treatment (Table 19, symbol L). Format: in vivo, windgrass (Apera spica-venti). Particulars: 320 g/ha. The method, boiled down: as §3
Assay [6] relates to lambsquarters. In words: Test Example 4: herbicidal effect by soil treatment (Table 19, symbol O). The assay is classed as in vivo, lambsquarters (Chenopodium album). Particulars: 320 g/ha. In a few lines:
as §3

The test system of the next assay is persian speedwell. In words: Test Example 4: herbicidal effect by soil treatment (Table 19, symbol R). Format: in vivo, Persian speedwell (Veronica persica). The conditions noted are these: 320 g/ha. The method, boiled down:
as §3

For assay [7], the system named is barnyard grass. In words: Test Example 5: herbicidal effect by foliage application, plastic box (Table 20, symbol H). Format: in vivo, barnyard grass (Echinochloa crus-galli). Particulars: foliage application, 320 g/ha, 3 weeks after application. In a few lines:
(§4)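 Foliar spray test: emulsion formulation diluted in water to a set application rate, sprayed onto 14-day-old plants raised in diluvial soil at 25° C to 30° C under glass. Both herbicidal effect and crop effect rated visually three weeks later.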

The subject of a further assay is blackgrass. Kind of assay: Test Example 5: herbicidal effect by foliage application, plastic box (Table 20, symbol J). Format: in vivo, blackgrass (Alopecurus myosuroides). The conditions noted are these: foliage application, 320 g/ha, 3 weeks after application. The method, boiled down: as §4
In assay [8] the test system is windgrass. Kind of assay: Test Example 5: herbicidal effect by foliage application, plastic box (Table 20, symbol L). Format: in vivo, windgrass (Apera spica-venti). Particulars: foliage application, 320 g/ha, 3 weeks after application. The method, boiled down:
as §4

Assay [9] has as its system lambsquarters. Kind of assay: Test Example 5: herbicidal effect by foliage application, plastic box (Table 20, symbol O). The assay is classed as in vivo, lambsquarters (Chenopodium album). The conditions noted are these: foliage application, 320 g/ha, 3 weeks after application. The method, boiled down: as §4

Regarding `Cc1nn(C)c(=O)c(-c2c(-c3ccc(OC(C)C)cc3)sc3ccc(F)cc23)c1O` [2-034], the “Herbicidal effect on A: late watergrass (grade 0-5)” value in the assay on late watergrass was 3 (Herbicidal rate of 40% or more and less than 70%). Further, the “Herbicidal effect on B: Japanese bulrush (grade 0-5)” value (“Herbicidal effect on B” for short) with Japanese bulrush [1] was 4 (Herbicidal rate of 70% or more and less than 90%). Further, the “herbicidal effect rating, B: Japanese bulrush” value (“herbicidal effect rating, B” below) with Japanese bulrush [2] was 3 (Herbicidal rate of 40% or more and less than 70%). For the same molecule, the “herbicidal effect on H (barnyard grass), rating 0-5” value (“herbicidal effect on H” below) with barnyard grass [3] was 5 (Herbicidal rate of 90% or more (almost completely withered)). Moreover, in the assay on Chinese sprangletop, the “herbicidal effect on D (Chinese sprangletop), rating 0-5” value (from here on “herbicidal effect on D”) is listed as 0 (Herbicidal rate of 5% or less (almost no effect)). Also, the “herbicidal effect rating, F: southern crabgrass” value (“herbicidal effect rating, F” below) in the assay with southern crabgrass is 5 (Herbicidal rate of 90% or more (almost completely withered)). In addition, the “herbicidal effect rating, H: barnyard grass” value (from here on “herbicidal effect rating, H”) with barnyard grass [4] was 2 (Herbicidal rate of 20% or more and less than 40%). The “herbicidal effect rating, L: windgrass” value in the assay with windgrass [5] was 0 (Herbicidal rate of 5% or less (almost no effect)). Further, the “herbicidal effect rating, O: lambsquarters” value (shortened to “herbicidal effect rating, O”) with lambsquarters [6] is 5 (Herbicidal rate of 90% or more (almost completely withered)). The “herbicidal effect rating, R: persian speedwell” value (shortened to “herbicidal effect rating, R”) in the assay on persian speedwell was 4 (Herbicidal rate of 70% or more and less than 90%). Further, the “effect on barnyard grass (H)” value in the assay with barnyard grass [7] is 5 (Herbicidal rate of 90% or more (almost completely withered)). Also, in the assay with blackgrass, the “effect on blackgrass (J)” value is listed as 5 (Herbicidal rate of 90% or more (almost completely withered)). For the same molecule, the “effect on windgrass (L)” value with windgrass [8] is 4 (Herbicidal rate of 70% or more and less than 90%). The “effect on lambsquarters (O)” value in the assay on lambsquarters [9] is 5 (Herbicidal rate of 90% or more (almost completely withered)).

On to `CCCCOc1ccc(-c2sc3ccc(F)cc3c2-c2c(O)c(C)nn(C)c2=O)cc1` [2-036], for which the “Herbicidal effect on A: late watergrass (grade 0-5)” value in the assay with late watergrass was 3 (Herbicidal rate of 40% or more and less than 70%). The “Herbicidal effect on B” value in the assay with Japanese bulrush [1] is 4 (Herbicidal rate of 70% or more and less than 90%). The “herbicidal effect rating, B” value in the assay on Japanese bulrush [2] is 3 (Herbicidal rate of 40% or more and less than 70%). In the assay with barnyard grass [3], the “herbicidal effect on H” value is 5 (Herbicidal rate of 90% or more (almost completely withered)). In addition, the “herbicidal effect on D” value with Chinese sprangletop is 3 (Herbicidal rate of 40% or more and less than 70%). The “herbicidal effect rating, F” value with southern crabgrass is 2 (Herbicidal rate of 20% or more and less than 40%). Besides, in the assay on barnyard grass [4], the “herbicidal effect rating, H” value was 0 (Herbicidal rate of 5% or less (almost no effect)). Also, the “herbicidal effect rating, L: windgrass” value in the assay with windgrass [5] is 0 (Herbicidal rate of 5% or less (almost no effect)). In addition, the “herbicidal effect rating, O” value with lambsquarters [6] is 5 (Herbicidal rate of 90% or more (almost completely withered)). The “herbicidal effect rating, R” value in the assay with persian speedwell is 4 (Herbicidal rate of 70% or more and less than 90%). The “effect on barnyard grass (H)” value with barnyard grass [7] is listed as 5 (Herbicidal rate of 90% or more (almost completely withered)). For the same molecule, the “effect on blackgrass (J)” value in the assay on blackgrass was 4 (Herbicidal rate of 70% or more and less than 90%). For the same molecule, in the assay with windgrass [8], the “effect on windgrass (L)” value was 4 (Herbicidal rate of 70% or more and less than 90%). Also, the “effect on lambsquarters (O)” value in the assay with lambsquarters [9] is 5 (Herbicidal rate of 90% or more (almost completely withered)).

For `CCCC(=O)Oc1c(C)nn(C)c(=O)c1-c1c(-c2ccc(OC(F)(F)F)cc2)sc2ccc(F)cc12` [2-046], the “Herbicidal effect on A: late watergrass (grade 0-5)” value with late watergrass was 4 (Herbicidal rate of 70% or more and less than 90%). In addition, the “Herbicidal effect on B” value in the assay with Japanese bulrush [1] was 4 (Herbicidal rate of 70% or more and less than 90%). Further, in the assay with Japanese bulrush [2], the “herbicidal effect rating, B” value was 3 (Herbicidal rate of 40% or more and less than 70%). Also, the “herbicidal effect on H” value with barnyard grass [3] was 5 (Herbicidal rate of 90% or more (almost completely withered)). For the same molecule, the “herbicidal effect on D” value in the assay on Chinese sprangletop is 3 (Herbicidal rate of 40% or more and less than 70%). Also, the “herbicidal effect rating, F” value with southern crabgrass is 2 (Herbicidal rate of 20% or more and less than 40%). In the assay with barnyard grass [4], the “herbicidal effect rating, H” value was 3 (Herbicidal rate of 40% or more and less than 70%). Moreover, the “herbicidal effect rating, L: windgrass” value with windgrass [5] is reported as 0 (Herbicidal rate of 5% or less (almost no effect)). In addition, the “herbicidal effect rating, O” value with lambsquarters [6] is listed as 5 (Herbicidal rate of 90% or more (almost completely withered)). For the same molecule, the “herbicidal effect rating, R” value in the assay with persian speedwell is listed as 5 (Herbicidal rate of 90% or more (almost completely withered)). Also, the “effect on barnyard grass (H)” value with barnyard grass [7] was 5 (Herbicidal rate of 90% or more (almost completely withered)). Besides, the “effect on blackgrass (J)” value in the assay on blackgrass is listed as 0 (Herbicidal rate of 5% or less (almost no effect)). The “effect on windgrass (L)” value in the assay with windgrass [8] was 0 (Herbicidal rate of 5% or less (almost no effect)). Besides, in the assay on lambsquarters [9], the “effect on lambsquarters (O)” value is recorded as 5 (Herbicidal rate of 90% or more (almost completely withered)).

In the case of `Cc1nn(C)c(=O)c(-c2c(-c3ccc(OCCF)cc3)sc3ccc(F)cc23)c1O` [2-047], the “Herbicidal effect on A: late watergrass (grade 0-5)” value in the assay on late watergrass is 3 (Herbicidal rate of 40% or more and less than 70%). Also, in the assay with Japanese bulrush [1], the “Herbicidal effect on B” value is 3 (Herbicidal rate of 40% or more and less than 70%). Besides, in the assay on Japanese bulrush [2], the “herbicidal effect rating, B” value was 3 (Herbicidal rate of 40% or more and less than 70%). The “herbicidal effect on H” value in the assay on barnyard grass [3] is reported as 5 (Herbicidal rate of 90% or more (almost completely withered)). In addition, in the assay with Chinese sprangletop, the “herbicidal effect on D” value is 4 (Herbicidal rate of 70% or more and less than 90%). In addition, the “herbicidal effect rating, F” value with southern crabgrass was 5 (Herbicidal rate of 90% or more (almost completely withered)). In the assay on barnyard grass [4], the “herbicidal effect rating, H” value was 5 (Herbicidal rate of 90% or more (almost completely withered)). For the same molecule, the “herbicidal effect rating, L: windgrass” value in the assay with windgrass [5] is recorded as 0 (Herbicidal rate of 5% or less (almost no effect)). For the same molecule, the “herbicidal effect rating, O” value in the assay on lambsquarters [6] is reported as 5 (Herbicidal rate of 90% or more (almost completely withered)). In the assay on persian speedwell, the “herbicidal effect rating, R” value is 5 (Herbicidal rate of 90% or more (almost completely withered)). Besides, in the assay with barnyard grass [7], the “effect on barnyard grass (H)” value is on record as 5 (Herbicidal rate of 90% or more (almost completely withered)). Also, in the assay with blackgrass, the “effect on blackgrass (J)” value was 4 (Herbicidal rate of 70% or more and less than 90%). Moreover, in the assay on windgrass [8], the “effect on windgrass (L)” value is 4 (Herbicidal rate of 70% or more and less than 90%). Further, in the assay with lambsquarters [9], the “effect on lambsquarters (O)” value is 4 (Herbicidal rate of 70% or more and less than 90%).
